Ki data for one molecule are collected here from BindingDB's records for doi:10.1007/s00044-004-0120-9 (n/a, 2004).

SMILES strings stand for the structures.

The test concerns the target T1, Alpha-1A adrenergic receptor (Homo sapiens, UniProt P35348).
T1 sequence (P35348 whole entry): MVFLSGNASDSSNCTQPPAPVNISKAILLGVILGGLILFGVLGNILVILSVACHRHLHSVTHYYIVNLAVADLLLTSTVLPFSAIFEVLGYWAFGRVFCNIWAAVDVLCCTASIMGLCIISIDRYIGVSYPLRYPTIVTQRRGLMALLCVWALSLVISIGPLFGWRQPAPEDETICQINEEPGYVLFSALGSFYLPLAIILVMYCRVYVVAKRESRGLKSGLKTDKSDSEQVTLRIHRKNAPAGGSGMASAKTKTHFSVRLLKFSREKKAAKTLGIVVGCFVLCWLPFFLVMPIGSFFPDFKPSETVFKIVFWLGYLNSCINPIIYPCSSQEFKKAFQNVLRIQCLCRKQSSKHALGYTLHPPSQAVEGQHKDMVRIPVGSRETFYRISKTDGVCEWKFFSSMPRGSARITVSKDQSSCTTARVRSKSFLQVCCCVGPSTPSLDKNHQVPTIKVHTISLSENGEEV
As to the kind of experiment: Binding affinity to Homo sapiens (human) alpha1A adrenergic receptor.

The term Ki denotes a measure of affinity in units of concentration, obtained from inhibition or displacement. The low end stands for tighter binding, the high end for weaker binding. On to `CCC1=C(C(N)=O)C(c2ccc([N+](=O)[O-])cc2)C(C(=O)NCCCN2CCC(c3ccccc3)(c3ccccc3)CC2)=C(CC)N1` (stereo unspecified), for which the Ki stood at 1.1 nM.
